Laboratory results: patent US9040717B2, “Pyrazole-amide compounds and pharmaceutical use thereof” (JAPAN TOBACCO INC., priority 2013, dated 2015)

Biological target: hERG (Homo sapiens (Human), UniProt Q12809)
Test: hERG whole cell patch clamp test
Type: cell-based
Conditions: human, hERG-transfected HEK293 cells, pH 7.4; whole cell patch clamp
Experimental: Using human ether-a-go-go related gene (hERG)-transfected HEK293 cells (Cytomyx Limited), an influence on hERG current was examined according to the whole cell patch clamp technique. The hERG-transfected HEK293 cells were passaged using a CO2 incubator (BNA-111, TABAI ESPEC CORP.) under the set conditions of 37° C., 5% CO2, saturated humidity. Culture containers used were Collagen Type I Coated 75 cm^2 flask (4123-010, AGC TECHNO GLASS CO., Ltd.) and Collagen Type I Coated 35 mm culture dish (4000-010, AGC TECHNO GLASS CO., Ltd.). The culture medium used was E-MEM (Eagle Minimum Essential Medium (Earle's Salts, Nikken biomedical laboratory) added with 10% FCS (Fetal calf serum, BioWest, L.L.C.) and 1% MEM Non-Essential Amino Acids Solution (NEAA, Invitrogen Corporation). Geneticin for the selection of hERG gene expressing cells was added thereto to a concentration of 400 μg/mL. As the cells for the measurement, 3×10^4 hERG-transfected HEK293 cells were plated on a 35 mm culture dish 4 to 7 days before measurement of the hERG current. The culture dish produced for the measurement contained the above-mentioned culture medium without geneticin (Invitrogen Corporation).
The highest evaluation concentration of each compound was determined from the highest concentration at which precipitation was not found in the standard extracellular fluid (NaCl: 140 mmol/L, KCl: 2.5 mmol/L, MgCl2:2 mmol/L, CaCl2: 2 mmol/L, HEPES: 10 mmol/L, glucose: 10 mmol/L (adjusted to pH 7.4 with Tris-base)). As the application method, each solution to be applied was ejected from a Y-tube having a tip diameter of about 0.25 mm, which was adjacent (about 2 mm) to the cells, and applied to the cells. The ejection rate was about 0.4 mL/min.
The experiment was performed at room temperature under a phase contrast microscope. The 35 mm culture dish plated with the cells was set on a measurement apparatus, and the standard extracellular fluid was continuously applied to the cells from the Y-tube. A glass electrode for the measurement was filled with an intracellular fluid (Potassium Gluconate: 130 mmol/L, KCl: 20 mmol/L, MgCl2: 1 mmol/L, ATP-Mg: 5 mmol/L, EGTA: 3.5 mmol/L, HEPES: 10 mmol/L (adjusted to pH 7.2 with Tris-base)). A conventional whole cell patch clamp method was applied to the cells, and the maintenance electric potential was set to −80 mV. Under a fixed electric potential, the whole cell current was amplified by an amplifier for patch clamp (AXOPATCH-200B, Axon Instruments, Inc.), and the data was loaded into a computer (IMC-P642400, Intermedical Co., Ltd.) using a data acquisition analysis software (pCLAMP 9.2, Axon Instruments, Inc.).
The measurement of the hERG current was performed in the following two steps. In both cases, the hERG current was initiated by giving a command potential (maintenance electric potential −80 mV, prepulse +20 mV, 1.5 sec, test-pulse −50 mV, 1.5 sec).
Step (1): The above-mentioned command potential was given at 0.1 Hz for 2 min.
Step (2): The above-mentioned command potential was subjected to P/3 subtraction of pCLAMP 9.2 to remove leak current. This was repeated three times and an average thereof was taken as hERG current.
Subsequent to step (1), Step (2) was performed (about 3 min), and the maximum tail current obtained by applying a test-pulse to the hERG current obtained by the method of step (2) was taken as hERG current value. Hereafter, the operations of (1) and (2) were alternately repeated until completion of the experiment and the hERG current value was measured.
Stable hERG current value was recorded three times (about 10 min), and the standard extracellular fluid was instantaneously exchanged with each application fluid. The hERG current value was measured three times (about 10 min) in the same manner during perfusion of the application fluid, and the current value obtained by the 3rd measurement was taken as hERG current value after perfusion of the application fluid. […]

hERG, sequence (Q12809 whole entry): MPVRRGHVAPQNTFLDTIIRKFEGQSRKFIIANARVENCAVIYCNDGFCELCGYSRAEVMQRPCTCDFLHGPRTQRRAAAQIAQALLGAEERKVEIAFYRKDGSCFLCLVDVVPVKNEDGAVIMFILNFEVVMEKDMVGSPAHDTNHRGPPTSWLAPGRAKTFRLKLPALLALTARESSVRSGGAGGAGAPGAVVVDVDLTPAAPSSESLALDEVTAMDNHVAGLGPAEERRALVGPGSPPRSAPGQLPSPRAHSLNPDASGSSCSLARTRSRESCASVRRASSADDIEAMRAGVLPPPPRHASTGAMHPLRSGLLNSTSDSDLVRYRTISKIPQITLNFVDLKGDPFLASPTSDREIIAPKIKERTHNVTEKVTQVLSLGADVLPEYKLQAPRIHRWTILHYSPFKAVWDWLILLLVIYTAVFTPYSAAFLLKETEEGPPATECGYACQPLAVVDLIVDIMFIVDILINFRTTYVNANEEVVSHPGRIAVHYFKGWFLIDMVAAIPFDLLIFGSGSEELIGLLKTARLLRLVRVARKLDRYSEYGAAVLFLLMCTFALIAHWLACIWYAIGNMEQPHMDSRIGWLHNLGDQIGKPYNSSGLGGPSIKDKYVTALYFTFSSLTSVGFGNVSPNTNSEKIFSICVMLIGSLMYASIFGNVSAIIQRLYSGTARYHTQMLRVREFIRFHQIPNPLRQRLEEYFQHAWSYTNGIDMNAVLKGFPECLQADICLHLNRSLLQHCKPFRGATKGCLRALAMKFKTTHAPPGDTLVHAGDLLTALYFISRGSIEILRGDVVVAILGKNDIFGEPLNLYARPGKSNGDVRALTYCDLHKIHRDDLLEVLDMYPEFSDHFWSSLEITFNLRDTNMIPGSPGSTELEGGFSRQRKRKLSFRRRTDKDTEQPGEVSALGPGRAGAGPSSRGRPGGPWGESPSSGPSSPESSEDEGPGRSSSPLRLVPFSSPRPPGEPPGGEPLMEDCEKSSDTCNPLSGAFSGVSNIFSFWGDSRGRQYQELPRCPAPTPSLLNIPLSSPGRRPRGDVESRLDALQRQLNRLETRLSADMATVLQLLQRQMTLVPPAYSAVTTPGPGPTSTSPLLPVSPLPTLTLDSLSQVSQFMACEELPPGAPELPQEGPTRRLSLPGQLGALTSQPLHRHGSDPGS

## NC(=O)Cn1cc(-c2cc(OCCC34CC5CC(CC(O)(C5)C3)C4)cc3c2-c2ccccc2[C@]3(O)C(F)(F)F)cn1 [Compound (A), 2-(4-{(9R)-9-Hydroxy-2-[2-(3-hydroxyadamantan-1-yl)ethoxy]-9-(trifluoromethyl)-9H-fluoren-4-yl}-1H-pyrazol-1-yl)acetamide]
  IC50 at 10 min: > 10 µM
